Where “and” joins values, the source holds several entries; their conditions need not be identical. Equal values may be shown once. Where a name gives a salt, the structure may show the parent alone.
Assays:
D1 [1] = target: T1, D1 (Homo sapiens, UniProt P21728); assay: D1 cAMP HTRF assay (HEK293T/hD1#1 stable cell line); format: cell-based; design: expressed in transfected cells
Summary of the method: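 Cells from a stable human D1 HEK293T line in PBS/0.5 μM IBMX were incubated with compound for 30 min at room temperature, and cAMP was then detected by competitive HTRF (1 h, room temperature). A cAMP standard curve converted ratios to cAMP, giving ratio-based and cAMP-based EC50 values.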

D1 [2] = target: T1, D1; assay: Human D1 receptor binding assay ([3H]-SCH23390 competition); conditions: Human D1 Receptor Binding, Ki (nM), Geometric mean of 2-4 determinations, a: >=5 determinations, d: single determination

T1 sequence (P21728 whole entry): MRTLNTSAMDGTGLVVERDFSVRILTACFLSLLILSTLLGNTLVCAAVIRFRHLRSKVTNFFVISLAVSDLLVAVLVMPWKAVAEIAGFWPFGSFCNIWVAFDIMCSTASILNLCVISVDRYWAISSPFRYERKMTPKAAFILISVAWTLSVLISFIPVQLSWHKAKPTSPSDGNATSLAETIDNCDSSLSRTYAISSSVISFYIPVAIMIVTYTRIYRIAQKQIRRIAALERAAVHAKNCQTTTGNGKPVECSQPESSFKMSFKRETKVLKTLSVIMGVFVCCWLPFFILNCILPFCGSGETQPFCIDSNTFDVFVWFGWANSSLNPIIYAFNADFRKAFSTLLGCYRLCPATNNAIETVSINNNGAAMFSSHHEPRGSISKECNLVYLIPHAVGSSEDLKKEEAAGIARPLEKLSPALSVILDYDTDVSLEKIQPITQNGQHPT

EC50 (D1 [1]) | Ki (D1 [2]) [nM] | Compound
710 nM and 1520 nM | 117 | Cc1cc(Oc2nccc3occc23)ccc1-c1cccnc1C1CC1 [Example 88, 4-[4-(2-cyclopropylpyridin-3-yl)-3-methylphenoxy]furo[3,2-c]pyridine]
1860 nM | 123 | Cc1cc(Oc2nccc3occc23)ccc1-c1c(C)cccc1C [Example 89, 4-[(2,2′,6′-trimethylbiphenyl-4-yl)oxy]furo[3,2-c]pyridine, trifluoroacetate salt]
448 nM | 25.4 | Cc1nc(N)ccc1-c1ccc(Oc2nccc3occc23)cc1Cl [Example 90, 5-[2-chloro-4-(furo[3,2-c]pyridin-4-yloxy)phenyl]-6-methylpyridin-2-amine]
580 nM | 61.2 | Cc1ncc(N)nc1-c1ccc(Oc2nccc3occc23)cc1C(F)(F)F [Example 91, 6-[4-(furo[3,2-c]pyridin-4-yloxy)-2-(trifluoromethyl)phenyl]-5-methylpyrazin-2-amine]
746 nM | 25.2 | Cc1ncccc1-c1ccc(Oc2nccc3occc23)cc1F [Example 92, 4-[3-fluoro-4-(2-methylpyridin-3-yl)phenoxy]furo[3,2-c]pyridine]
761 nM | 88 | Cc1ncc(N)nc1-c1ccc(Oc2nccc3occc23)cc1F [Example 93, 6-[2-fluoro-4-(furo[3,2-c]pyridin-4-yloxy)phenyl]-5-methylpyrazin-2-amine]
837 nM | 7.08 | COc1cc(Oc2nccc3occc23)ccc1-c1c(OC)ccc2cnccc12 [Example 94, 5-[4-(furo[3,2-c]pyridin-4-yloxy)-2-methoxyphenyl]-6-methoxyisoquinoline, formate salt]
444 nM | 27.3 | Cc1cc(Oc2nccc3occc23)ccc1-c1c(C)ncnc1N1CCC1 [Example 95, 4-{4-[4-(azetidin-1-yl)-6-methylpyrimidin-5-yl]-3-methylphenoxy}furo[3,2-c]pyridine, formate salt]
306 nM | 24.5 | Cc1cc(Oc2nccc3occc23)ccc1-c1c(C)ncnc1N1Cc2cn[nH]c2C1 [Example 96, 4-{4-[4-(4,6-dihydropyrrolo[3,4-c]pyrazol-5(1H)-yl)-6-methylpyrimidin-5-yl]-3-methylphenoxy}furo[3,2-c]pyridine, trifluoroacetate salt]
205 nM | 7.52 | Cc1cc(Oc2nccc3occc23)ccc1-c1c(C)ncnc1N1CC(F)C1 [Example 97, 4-{4-[4-(3-fluoroazetidin-1-yl)-6-methylpyrimidin-5-yl]-3-methylphenoxy}furo[3,2-c]pyridine, formate salt]
956 nM | 28.6 | Cc1cc(Oc2nccc3occc23)ccc1-c1c(C)ncnc1N1CCC(F)C1 (centres unmarked) [Example 98, 4-{4-[4-(3-fluoropyrrolidin-1-yl)-6-methylpyrimidin-5-yl]-3-methylphenoxy}furo[3,2-c]pyridine, trifluoroacetate salt]
3040 nM and > 9950 nM | 1370 | Cc1ncnc(C)c1-c1ccc(Oc2nccc3occc23)c(C)c1C [Example 99, 4-[4-(4,6-dimethylpyrimidin-5-yl)-2,3-dimethylphenoxy]furo[3,2-c]pyridine]
112 nM and 580 nM | 11 | Cc1ncc2nccn2c1-c1ccc(Oc2nccc3occc23)cc1C(F)(F)F [Example 100, 5-[4-(furo[3,2-c]pyridin-4-yloxy)-2-(trifluoromethyl)phenyl]-6-methylimidazo[1,2-a]pyrazine]
3450 nM | 431 | Cc1cc(-c2c(C)ncc3nccn23)c(C)cc1Oc1nccc2occc12 [Example 101, 5-[4-(furo[3,2-c]pyridin-4-yloxy)-2,5-dimethylphenyl]-6-methylimidazo[1,2-a]pyrazine]
714 nM | 84.6 | Cc1cc(Oc2nccc3occc23)ccc1-c1c(C)ncn1C [Example 102, 4-[4-(1,4-dimethyl-1H-imidazol-5-yl)-3-methylphenoxy]furo[3,2-c]pyridine]
392 nM and 870 nM | 23.9 | Cc1cc(Oc2nccc3occc23)cc(C)c1-c1c(C)ncnc1C [Example 103, 4-[4-(4,6-dimethylpyrimidin-5-yl)-3,5-dimethylphenoxy]furo[3,2-c]pyridine]
502 nM | 24.1 | Cc1cc(Oc2nccc3occc23)ccc1-c1c(C)cncc1C [Example 104, 4-[4-(3,5-dimethylpyridin-4-yl)-3-methylphenoxy]furo[3,2-c]pyridine]
669 nM | 26.2 | COc1nc(C)c(-c2ccc(Oc3nccc4occc34)cc2C)n2ccnc12 [Example 107, 5-[4-(furo[3,2-c]pyridin-4-yloxy)-2-methylphenyl]-8-methoxy-6-methylimidazo[1,2-a]pyrazine]
673 nM | 55.5 | Cc1ncnc(C)c1-c1ccc(Oc2nccc3occc23)cc1OCc1nc(C2CC2)no1 [Example 108, 4-{3-[(3-cyclopropyl-1,2,4-oxadiazol-5-yl)methoxy]-4-(4,6-dimethylpyrimidin-5-yl)phenoxy}furo[3,2-c]pyridine]

EC50 (D1 [1]) | Ki (D1 [2]) [nM] | Compound
429 nM | 57.5 | Cc1cc(Oc2nccc3occc23)ccc1-c1c(C)nc(C)c2nccn12 [Example 109, 5-[4-(furo[3,2-c]pyridin-4-yloxy)-2-methylphenyl]-6,8-dimethylimidazo[1,2-a]pyrazine]
33.8 nM | 2.89 | Cc1cc(Oc2nccc3occc23)ccc1-c1c(C)cnc2nccn12 [Example 110, 5-[4-(furo[3,2-c]pyridin-4-yloxy)-2-methylphenyl]-6-methylimidazo[1,2-a]pyrimidine]
335 nM | 41.2 | Cc1cc(Oc2nccc3occc23)ccc1-c1nc2nccn2cc1C [Example 111, 7-[4-(furo[3,2-c]pyridin-4-yloxy)-2-methylphenyl]-6-methylimidazo[1,2-a]pyrimidine]
156 nM | 13.8 | Cc1cc(Oc2nccc3occc23)ccc1-c1c(C)nc(N)c2nccn12 [Example 112, 5-[4-(furo[3,2-c]pyridin-4-yloxy)-2-methylphenyl]-6-methylimidazo[1,2-a]pyrazin-8-amine]
1020 nM | 133 | COc1cc(Oc2nccc3occc23)ccc1-c1cc(N)cnc1C [Example 113, 5-[4-(furo[3,2-c]pyridin-4-yloxy)-2-methoxyphenyl]-6-methylpyridin-3-amine]
103 nM | 21.2 | Cc1ncnc(C)c1-c1c(F)cc(Oc2nccc3occc23)cc1F [Example 114, 4-[4-(4,6-dimethylpyrimidin-5-yl)-3,5-difluorophenoxy]furo[3,2-c]pyridine]
777 nM | 194 | Cc1cc(Oc2nccc3occc23)ccc1-c1c(C)cnn2c(=O)[nH]nc12 [Example 115, 8-[4-(furo[3,2-c]pyridin-4-yloxy)-2-methylphenyl]-7-methyl[1,2,4]triazolo[4,3-b]pyridazin-3(2H)-one]
3440 nM | 481 | Cc1ncnc(C)c1-c1ccc(Oc2nccc3occc23)c2ccncc12 [Example 116, 8-(4,6-dimethylpyrimidin-5-yl)-5-(furo[3,2-c]pyridin-4-yloxy)isoquinoline]
452 nM | 23.1 | Cc1cc(Oc2nccc3occc23)ccc1-c1c(C)nc(C)c(=O)n1C [Example 117, 6-[4-(furo[3,2-c]pyridin-4-yloxy)-2-methylphenyl]-1,3,5-trimethylpyrazin-2(1H)-one]
> 30000 nM | > 986 | Cc1cc(Oc2nccc3occc23)ccc1-c1c(C)ncnc1C(=O)O [Example 118, 5-[4-(furo[3,2-c]pyridin-4-yloxy)-2-methylphenyl]-6-methylpyrimidine-4-carboxylic acid]
> 11200 nM | 2240 | c1cc2occc2c(Oc2ccc(-c3nccc4occc34)cc2)n1 [Example 119, 4-[4-(furo[3,2-c]pyridin-4-yloxy)phenyl]furo[3,2-c]pyridine]
4590 nM | 211 | Cc1ncncc1-c1ccc(Oc2nccc3occc23)cc1C(C)(C)C#N [Example 122, 2-[5-(furo[3,2-c]pyridin-4-yloxy)-2-(4-methylpyrimidin-5-yl)phenyl]-2-methylpropanenitrile]
188 nM | 29.4 | Cc1cc(Oc2nccc3occc23)ccc1-c1c(C)cnc(=O)n1C [Example 124, 6-[4-(furo[3,2-c]pyridin-4-yloxy)-2-methylphenyl]-1,5-dimethylpyrimidin-2(1H)-one]
91.7 nM | 23 | Cc1cc(Oc2nccc3occc23)ccc1-c1cn[nH]c(=O)c1C [Example 125, 5-[4-(furo[3,2-c]pyridin-4-yloxy)-2-methylphenyl]-4-methylpyridazin-3(2H)-one]
546 nM | 39.9 | Cc1cc(Oc2nccc3occc23)ccc1-c1cccc(=O)n1C [Example 126, 6-[4-(furo[3,2-c]pyridin-4-yloxy)-2-methylphenyl]-1-methylpyridin-2(1H)-one]
127 nM | 14 | Cc1ncnc(C)c1-c1ccc(Oc2nccc3occc23)cc1Cl [Example 127, 4-[3-chloro-4-(4,6-dimethylpyrimidin-5-yl)phenoxy]furo[3,2-c]pyridine]
5480 nM | 379 | Cc1ncnc(C)c1-c1cc(F)c(Oc2nccc3occc23)c(F)c1 [Example 128, 4-[4-(4,6-dimethylpyrimidin-5-yl)-2,6-difluorophenoxy]furo[3,2-c]pyridine]
268 nM | 32.3 | Cc1cc(Oc2nccc3occc23)c(F)cc1-c1c(C)ncnc1C [Example 129, 4-[4-(4,6-dimethylpyrimidin-5-yl)-2-fluoro-5-methylphenoxy]furo[3,2-c]pyridine]

Source: patent US20150291625A1 (PFIZER INC., priority 2012, published 2015)
